Source: US20150293106A1, “DIAROMATIC AMINO ACID SUBSTRATE FOR CATHEPSIN DETECTION” (INDUSTRY-ACADEMIC COOPERATION FOUNDATION, YONSEI UNIVERSITY, priority 2012, published 2015)
“Also recorded” adds a separate entry of the source. Marks after values point to notes of the source that are not given here.

What was measured:
[1] = tested on: cysteine protease (papain, chymopapain, bromelain); assay: Protease-catalyzed hydrolysis, restored DBDY fluorescence (selectivity, FIGS. 11-19); assay type: biochemical, papaya latex; pineapple stem; conditions: substrate 2.5 μM, protease 0.1 μM, two hours
Protocol: (§1) The reaction was performed under alkaline conditions.
(§2) The hydrolysis reaction was performed for two hours. […] Each experiment was repeated at least three times.

[2] = tested on: other proteases (non-cysteine proteases of the 13-protease panel); assay: as above; assay type: biochemical; conditions: substrate 2.5 μM, protease 0.1 μM, two hours
Protocol: as §1, §2

chymotrypsin = target: T1, chymotrypsin (Bos taurus, UniProt P00766); assay: Degree of hydrolysis by protease (Table 3); assay type: biochemical, bovine; conditions: after 2 hours, protease 10 μM, substrate 0.2 mM (G1-G3, L1-L3) or 0.1 mM (G4, L4), n.d. = no hydrolysis was detected, hydrolysate Gly-INH (G), Lys-INH (L1-L3)
T1 construct: chymotrypsin and trypsin derived from fetal bovine pancreas; purchased Sigma-Aldrich Chemical Co; host or cells: bovine pancreas
Protocol: (§3) A hydrolysate was measured using a HPLC system.

papain [3] = target: T2, papain (Carica papaya, UniProt P00784); assay: Degree of hydrolysis by protease (Table 3); assay type: biochemical, papaya latex; conditions: after 2 hours; protease 10 μM; substrate 0.2 mM (G1-G3, L1-L3) or 0.1 mM (G4, L4); hydrolysate INH
T2 construct: papain and chymopapain derived from papaya latex; purchased Sigma-Aldrich Chemical Co; host or cells: papaya latex
T2 sequence (P00784 134-345): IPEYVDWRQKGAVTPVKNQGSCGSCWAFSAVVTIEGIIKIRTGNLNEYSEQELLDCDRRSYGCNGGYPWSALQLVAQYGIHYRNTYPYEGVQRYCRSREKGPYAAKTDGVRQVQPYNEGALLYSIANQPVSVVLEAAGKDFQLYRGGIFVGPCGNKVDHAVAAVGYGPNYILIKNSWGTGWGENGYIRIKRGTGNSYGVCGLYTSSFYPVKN
Protocol: as §3

pepsin = target: T3, pepsin (Sus scrofa, UniProt P00791); assay: Degree of hydrolysis by protease (Table 3); assay type: biochemical, pig; conditions: after 2 hours; protease 10 μM; substrate 0.2 mM (G1-G3, L1-L3) or 0.1 mM (G4, L4); n.d. = no hydrolysis was detected; hydrolysate INH
T3 construct: pepsin derived from pig gastric mucosa; purchased Sigma-Aldrich Chemical Co; host or cells: pig gastric mucosa
Protocol: as §3

thermolysin = thermolysin (Bacillus thermoproteolyticus, UniProt P00800); conditions: after 2 hours; protease 10 μM; substrate 0.2 mM (G1-G3, L1-L3) or 0.1 mM (G4, L4); n.d. = no hydrolysis was detected; hydrolysate INH
Protocol: For the meaningful comparison of proteases, a hydrolysis reaction was performed under the optimum conditions as reported in other documents (regarding chymotrypsin, subtilisin, thermolysin and pepsin, refer to R. Beynon, J. S. Bond, Proteolytic Enzymes (Second Edition), Oxford University Press, 2001, pp. 295-316; regarding trypsin, proteinase K, carboxy peptidase A, collagenase, dispase, aspergillopepsin, papain, chymopapain, bromelain, cathepsin B, cathepsin L, and cathepsin S, refer to the catalog of Sigma-Aldrich Corporation).
Before the reaction, the mixtures of the reaction buffer solutions and proteases were previously incubated for 30 minutes in a water bath in which the temperature was adjusted to an analysis temperature. The hydrolysis reaction was initiated by adding a substrate dissolved in DMSO. The volume of the added substrate solution was controlled such that the final concentration of DMSO was lower than 1.5% (v/v).
A hydrolysate was measured using a HPLC system. In order to prepare a sample, a hydrolysis reaction was terminated by adding 2% (v/v) 1M HCl with respect to a serine protease, cysteine protease and metalloprotease, and adding 1M NaOH with respect to an aspartic protease. The separation was performed using the mixture of 10 mM-ammonium bicarbonate and acetonitrile as an eluent in C-18 column (particle size: 5 μm, 250 mm×4.6 mm, pore size: 80 Å, Phenomenex, USA). The elution was performed for 15 minutes, while the linear gradient of acetonitrile was increased from 0 to 60%. The flow rate and separation temperature of the eluent were maintained at 1 mL min^−1 and 35° C. The hydrolysate was detected at a wavelength of 254 nm.
Based on the report that a hydrophobic amino acid such as phenylalanine was preferred at a P2 position in most of the papain-like cysteine proteases, Boc-aromatic amino acid-Gly-INH and Boc-aromatic amino acid-Lys-INH were prepared in particular, and experimented as a substrate with respect to chymotrypsin, trypsin, papain, pepsin and thermolysis.

cathepsin L [4] = target: T4, cathepsin L (Homo sapiens, UniProt P07711); assay: Selective hydrolysis by cathepsins, fluorescence (FIG. 20); assay type: biochemical; conditions: substrate 1.0 μM, protease 10 mM, 30 minutes
T4 construct: cathepsins B and L derived from a human liver; purchased Sigma-Aldrich Chemical Co; host or cells: human liver
Protocol: as §1
(§4) The results of experiments were illustrated in FIG. 20. Since the hydrolysis by cathepsin B was faster than the hydrolyses by papain and chymopapain, the reaction was performed with a substrate (concentration: 1.0 μM) and a protease (concentration: […]) of which the concentrations were set lower than those in Experimental Example 2 (substrate (concentration: 2.5 μM) and protease (concentration: 0.1 μM) reacted for two hours) for 30 minutes in FIG. 20. C1, C2, CB, CL, and CS represented on an X-axis respectively denote papain, chymopapain, cathepsin B, cathepsin L, and cathepsin S. Each experiment was repeated at least three times.

cathepsin S = target: T5, cathepsin S (Homo sapiens, UniProt P25774); assay: as above; assay type: biochemical; conditions: substrate 1.0 μM, protease 10 mM, 30 minutes
T5 construct: cathepsin S derived from a human spleen; purchased Sigma-Aldrich Chemical Co; host or cells: human spleen
Protocol: as §1, §4

chymopapain = target: T6, chymopapain (Carica papaya, UniProt P14080); assay: Michaelis-Menten kinetics of hydrolysis by cysteine protease (Table 4); assay type: biochemical, papaya latex; conditions: average and standard deviation, at least 3 experiments
T6 construct: papain and chymopapain derived from papaya latex; purchased Sigma-Aldrich Chemical Co; host or cells: papaya latex
Protocol: as §1

papain [5] = target: T2, papain; assay: as above; assay type: biochemical, papaya latex; conditions: average and standard deviation, at least 3 experiments
Protocol: as §1

cathepsin L [6] = target: T4, cathepsin L; assay: as above; assay type: biochemical; conditions: average and standard deviation, at least 3 experiments
Protocol: as §1

cathepsin B [7] = target: T7, cathepsin B (Homo sapiens, UniProt P07858); assay: Selective hydrolysis by cathepsins, fluorescence (FIG. 20); assay type: biochemical; design: cathepsins B and L derived from a human liver; purchased Sigma-Aldrich Chemical Co; host or cells: human liver; conditions: substrate 1.0 μM, protease 10 mM, 30 minutes
Protocol: as §1, §4

cathepsin B [8] = target: T7, cathepsin B; assay: Michaelis-Menten kinetics of hydrolysis by cysteine protease (Table 4); assay type: biochemical; design: cathepsins B and L derived from a human liver; purchased Sigma-Aldrich Chemical Co; host or cells: human liver; conditions: average and standard deviation, at least 3 experiments
Protocol: as §1

trypsin [9] = target: T8, trypsin (Bos taurus, UniProt P00760); assay: Protease-catalyzed hydrolysis, restored DBDY fluorescence (selectivity, FIGS. 11-19); assay type: biochemical, bovine; conditions: substrate 2.5 μM, protease 0.1 μM, two hours
T8 construct: chymotrypsin and trypsin derived from fetal bovine pancreas; purchased Sigma-Aldrich Chemical Co; host or cells: bovine pancreas
T8 sequence (P00760 24-246): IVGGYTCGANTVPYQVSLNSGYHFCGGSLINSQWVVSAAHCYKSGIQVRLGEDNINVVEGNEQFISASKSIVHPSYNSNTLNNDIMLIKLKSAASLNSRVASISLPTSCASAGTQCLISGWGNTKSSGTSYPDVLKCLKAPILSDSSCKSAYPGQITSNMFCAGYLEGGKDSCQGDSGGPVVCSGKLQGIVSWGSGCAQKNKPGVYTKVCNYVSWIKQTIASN
Protocol: as §1, §2

trypsin [10] = target: T8, trypsin; assay: Degree of hydrolysis by protease (Table 3); assay type: biochemical, bovine; conditions: after 2 hours; protease 10 μM; substrate 0.2 mM (G1-G3, L1-L3) or 0.1 mM (G4, L4); n.d. = no hydrolysis was detected; hydrolysate INH
Protocol: as §3

T4 sequence (P07711 114-333): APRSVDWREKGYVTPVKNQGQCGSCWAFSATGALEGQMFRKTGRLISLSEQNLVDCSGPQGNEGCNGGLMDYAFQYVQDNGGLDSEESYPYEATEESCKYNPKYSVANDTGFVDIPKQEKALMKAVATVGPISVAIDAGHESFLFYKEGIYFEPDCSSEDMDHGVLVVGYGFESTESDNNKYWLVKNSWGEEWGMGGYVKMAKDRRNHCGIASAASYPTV
T6 sequence (P14080 135-352): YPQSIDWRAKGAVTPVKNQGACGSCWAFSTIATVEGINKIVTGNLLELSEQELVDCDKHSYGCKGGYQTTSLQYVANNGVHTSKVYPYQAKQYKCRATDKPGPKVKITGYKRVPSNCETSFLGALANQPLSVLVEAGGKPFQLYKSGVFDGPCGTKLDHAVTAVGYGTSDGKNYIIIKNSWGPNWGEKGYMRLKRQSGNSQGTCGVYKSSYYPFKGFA
T3 sequence (P00791 60-385): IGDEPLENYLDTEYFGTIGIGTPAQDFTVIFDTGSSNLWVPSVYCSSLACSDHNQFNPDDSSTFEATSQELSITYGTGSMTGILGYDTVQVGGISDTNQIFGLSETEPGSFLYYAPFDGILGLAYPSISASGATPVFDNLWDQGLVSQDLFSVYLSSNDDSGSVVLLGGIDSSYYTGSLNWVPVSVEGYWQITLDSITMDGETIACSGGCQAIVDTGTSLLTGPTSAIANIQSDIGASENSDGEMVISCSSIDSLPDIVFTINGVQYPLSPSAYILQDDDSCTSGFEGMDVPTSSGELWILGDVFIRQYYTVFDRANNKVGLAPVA
T5 sequence (P25774 115-331): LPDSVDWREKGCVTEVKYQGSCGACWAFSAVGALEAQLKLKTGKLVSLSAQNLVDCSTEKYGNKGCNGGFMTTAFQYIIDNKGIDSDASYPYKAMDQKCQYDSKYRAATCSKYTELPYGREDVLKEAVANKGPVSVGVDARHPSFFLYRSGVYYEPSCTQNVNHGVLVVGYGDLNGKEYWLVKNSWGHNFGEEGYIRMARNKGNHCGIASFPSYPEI
Chain of thermolysin (P00800 233-548): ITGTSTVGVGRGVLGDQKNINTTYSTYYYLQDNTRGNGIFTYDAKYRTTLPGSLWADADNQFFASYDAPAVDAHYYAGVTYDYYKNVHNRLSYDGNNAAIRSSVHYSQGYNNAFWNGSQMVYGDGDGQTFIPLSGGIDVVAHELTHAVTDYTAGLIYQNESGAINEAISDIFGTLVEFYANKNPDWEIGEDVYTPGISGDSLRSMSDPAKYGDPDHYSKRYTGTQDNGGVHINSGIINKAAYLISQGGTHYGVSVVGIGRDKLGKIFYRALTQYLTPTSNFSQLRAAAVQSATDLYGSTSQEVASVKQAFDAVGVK

Row | Structure (SMILES) | hydrolysis by cysteine proteases (increased fluorescence) [1] | hydrolysis by other (non-cysteine) proteases [2] | degree of hydrolysis by Chymotrypsin (chymotrypsin) | degree of hydrolysis by Papain (papain [3]) [%] | degree of hydrolysis by Pepsin (pepsin) [%] | degree of hydrolysis by Thermolysin (thermolysin) [%] | hydrolysis by cathepsin L (cathepsin L [4]) | hydrolysis by cathepsin S (cathepsin S) | Kcat (chymopapain) [s⁻¹] | Km (chymopapain) [µM] | Kcat (papain [5]) [s⁻¹] | Km (papain [5]) [µM] | Kcat (cathepsin L [6]) [s⁻¹] | Km (cathepsin L [6]) [µM] | hydrolysis by cathepsin B (cathepsin B [7]) | Kcat (cathepsin B [8]) [s⁻¹] | Km (cathepsin B [8]) [µM] | hydrolysis by trypsin (increased fluorescence) (trypsin [9]) | degree of hydrolysis by Chymotrypsin (chymotrypsin; listed as DBDY-(Lys-INH)2) | degree of hydrolysis by Trypsin (trypsin [10]) [%]
1 | CC(C)(C)OC(=O)NC(Cc1ccc(O)c(-c2cc(CC(NC(=O)OC(C)(C)C)C(=O)NCC(=O)NNC(=O)c3ccncc3)ccc2O)c1)C(=O)NCC(=O)NNC(=O)c1ccncc1 (centres unmarked) [Substrate G4, DBDY-(Gly-INH)2] | showed sensitivity and selectivity for the cysteine protease; also recorded: selectivity for cysteine proteases | no hydrolysis by other proteases | hardly hydrolyzed | 62.2 ± 2.1 | 2.98 ± 0.07 | 0.74 ± 0.03 | hydrolyzed only by cathepsin B | not hydrolyzed | 0.00567 ± 0.0005 | 4 ± 0.25 | 0.0257 ± 0.005 | 7.72 ± 1.25 | 0.0015 ± 0.00033 | 12.9 ± 3.69 | hydrolyzed only by cathepsin B | 0.0112 ± 0.001 | 2.88 |  |  | 
2 | CC(C)(C)OC(=O)NC(Cc1ccc(O)c(-c2cc(CC(NC(=O)OC(C)(C)C)C(=O)NC(CCCCN)C(=O)NNC(=O)c3ccncc3)ccc2O)c1)C(=O)NC(CCCCN)C(=O)NNC(=O)c1ccncc1 (centres unmarked) [Substrate L4, DBDY-(Lys-INH)2] | hydrolyzed; also recorded: selectivity for cysteine proteases |  | 7.15 ± 0.47 ^c % | 44.9 ± 2.8 | 1.04 ± 0.03 |  | hydrolyzed | not hydrolyzed | 0.0005 ± 0.00017 | 2.2 ± 0.28 | 0.0173 ± 0.00183 | 7.2 ± 0.8 | 0.00333 ± 0.00017 | 1.17 ± 0.09 | hydrolyzed | 0.0362 ± 0.0025 | 2.01 ± 0.05 | hydrolyzed; also recorded: slightly hydrolyzed | hardly hydrolyzed | 46.8 ± 1.7
